These results are taken from PMC7026641, “Identification of the 3-amino-3-carboxypropyl (acp) transferase enzyme responsible for acp^3U formation at position 47 in Escherichia coli tRNAs” (Nucleic Acids Research, 2019).

Assay [1] concerns the target T1, YfiP (TuaA, tRNA U47 acp transferase A) (Escherichia coli, UniProt Q47319).
T1 construct: gene tapT; E. coli YfiP with a C-terminal 6xHis-tag
T1 sequence (Q47319 1-232): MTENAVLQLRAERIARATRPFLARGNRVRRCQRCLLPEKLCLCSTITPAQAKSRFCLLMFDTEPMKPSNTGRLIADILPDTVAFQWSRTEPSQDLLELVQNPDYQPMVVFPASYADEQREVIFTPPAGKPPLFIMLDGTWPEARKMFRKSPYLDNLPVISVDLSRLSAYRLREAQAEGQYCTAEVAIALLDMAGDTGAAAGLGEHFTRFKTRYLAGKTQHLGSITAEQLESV
Put plainly: ITC, […]°C, one-site binding model. On the technique in general: In ITC the heat of successive injections is recorded.

For assay [2], the target named is T1, YfiP (TuaA, tRNA U47 acp transferase A). The assay can be described thus: ITC, […]°C, one-site binding model; also in vitro acp transfer to tRNA.

For orientation: Kd means a measure of binding affinity in units of concentration. Higher therefore signals weaker binding. In turn, `CSC[C@H]1O[C@@H](n2cnc3c(N)ncnc32)[C@H](O)[C@@H]1O` [5-MTA, 5′-methyl 5′-deoxythioadenosine] returned a dissociation constant Kd in assay [1] of 131 µM.
Same read-out and setting: the value for `Nc1ncnc2c1ncn2[C@@H]1O[C@H](CSCC[C@H](N)C(=O)O)[C@@H](O)[C@H]1O` [SAH, S-adenosylhomocysteine] was 84 µM.
Consider `C[S+](CC[C@H](N)C(=O)O)C[C@H]1O[C@@H](n2cnc3c(N)ncnc32)[C@H](O)[C@@H]1O` (stereo partly drawn) [SAM, S-adenosyl methionine], for which the Kd in assay [2] worked out at 32 µM.
